Assay results taken from patent publication US4250259A, “Microbiological production of ketones from C3 -C6 secondary alcohols” (priority 1979, dated 1981).
Where two headings read alike, the source gives them in different places.

Legend:
[1] = test system: Methylococcus capsulatus CRL M1 NRRL B-11,219; experiment: conversion of n-alkanes to oxidation products by cell suspensions (Table XVIII); type: cell-based; conditions: methane-grown cell suspension; pH 7.0
Method: (§12) ^(a) Cell-suspensions of methanegrown methylotroph microorganisms
(§13) indicated in 0.15 M phosphate buffer, pH 7.0 incubated in the alkanes as
(§14) indicated at 3° C. The oxidation products were determined by g.l.c

[2] = target: particulate P(40) fraction (Methylococcus capsulatus, UniProt G1UBD1+Q603F1+Q607G3); experiment: hydroxylation of n-alkanes to secondary alcohols by particulate P(40) fraction (Table XVII); type: biochemical, Methylococcus capsulatus (Texas, ATCC 19,069)
particulate P(40) fraction (Methylococcus capsulatus, UniProt G1UBD1+Q603F1+Q607G3), sequence (Q607G3 whole entry): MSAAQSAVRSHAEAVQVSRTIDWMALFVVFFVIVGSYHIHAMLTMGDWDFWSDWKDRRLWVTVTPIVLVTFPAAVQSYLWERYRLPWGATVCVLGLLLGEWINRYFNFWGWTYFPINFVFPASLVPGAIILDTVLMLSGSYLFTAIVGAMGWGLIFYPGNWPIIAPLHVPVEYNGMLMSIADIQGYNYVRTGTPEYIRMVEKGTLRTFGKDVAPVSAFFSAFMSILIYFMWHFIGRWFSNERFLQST
particulate P(40) fraction (Methylococcus capsulatus, UniProt G1UBD1+Q603F1+Q607G3), sequence (G1UBD1 33-414): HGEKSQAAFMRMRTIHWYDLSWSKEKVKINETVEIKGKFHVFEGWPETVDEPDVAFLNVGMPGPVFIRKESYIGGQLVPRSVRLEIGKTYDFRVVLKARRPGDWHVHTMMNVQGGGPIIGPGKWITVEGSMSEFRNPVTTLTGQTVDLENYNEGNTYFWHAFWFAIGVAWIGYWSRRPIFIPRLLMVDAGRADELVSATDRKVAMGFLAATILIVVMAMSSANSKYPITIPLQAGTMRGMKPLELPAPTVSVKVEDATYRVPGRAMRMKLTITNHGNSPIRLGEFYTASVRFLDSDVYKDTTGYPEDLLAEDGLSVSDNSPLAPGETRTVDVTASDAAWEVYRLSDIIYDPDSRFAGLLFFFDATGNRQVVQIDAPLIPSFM
particulate P(40) fraction (Methylococcus capsulatus, UniProt G1UBD1+Q603F1+Q607G3), sequence (Q603F1 1-260): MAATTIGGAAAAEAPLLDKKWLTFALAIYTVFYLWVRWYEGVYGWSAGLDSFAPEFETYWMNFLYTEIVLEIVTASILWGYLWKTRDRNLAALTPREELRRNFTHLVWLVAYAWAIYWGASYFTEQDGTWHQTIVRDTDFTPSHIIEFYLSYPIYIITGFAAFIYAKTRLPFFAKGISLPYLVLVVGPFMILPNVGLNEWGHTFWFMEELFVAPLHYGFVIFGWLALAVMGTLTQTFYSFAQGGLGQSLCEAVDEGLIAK
Excerpt: (§1) Both cell suspensions (particulate fraction) and cell-free particulate fraction of methane-grown methylotroph microorganisms are capable of catalyzing the conversion of C3 -C6 n-alkanes to the corresponding alcohols including secondary alcohols. The conditions for preparing the cell suspensions or the cell-free particulate fractions from methane-grown methylotroph microorganisms is the same as described above. The cell-free particulate fraction requires the presence of oxygen and NADH as an electron donor. […] Tables XVI and XVII show the conversion of C3 -C6 n-alkanes to the corresponding secondary alcohols using cell suspensions and cell-free particulate fractions, respectively, of methane-grown methylotroph microorganisms.
(§2) ^(a) Particulate P(40) fraction was prepared as follows:
(§3) Cellsuspensions at 4° C. were disintegrated through a French
(§4) Pressure cell and centrifuged at 4000 × g. for 15 min. to remove
(§5) unbroken bacteria. The supernatant solution was then centrifuged at 40,00
(§6) × g. for 30 min. at 4° C., yielding the particulate P(40) an
(§7) soluble S(40) fractions. The products were identified by gas
(§8) chromatography and cochromatography with authentic standard.

[3] = target: particulate P(40) fraction (Methylosinus trichosporium, UniProt Q50541+Q9KX50+Q9KX51); experiment: as above; type: biochemical, Methylosinus sp. (CRL-15, NRRL-B-11,202)
Excerpt: as §1, §2, §3, §4, §5, §6, §7, §8
Target sequence in this assay (Q9KX50 40-431): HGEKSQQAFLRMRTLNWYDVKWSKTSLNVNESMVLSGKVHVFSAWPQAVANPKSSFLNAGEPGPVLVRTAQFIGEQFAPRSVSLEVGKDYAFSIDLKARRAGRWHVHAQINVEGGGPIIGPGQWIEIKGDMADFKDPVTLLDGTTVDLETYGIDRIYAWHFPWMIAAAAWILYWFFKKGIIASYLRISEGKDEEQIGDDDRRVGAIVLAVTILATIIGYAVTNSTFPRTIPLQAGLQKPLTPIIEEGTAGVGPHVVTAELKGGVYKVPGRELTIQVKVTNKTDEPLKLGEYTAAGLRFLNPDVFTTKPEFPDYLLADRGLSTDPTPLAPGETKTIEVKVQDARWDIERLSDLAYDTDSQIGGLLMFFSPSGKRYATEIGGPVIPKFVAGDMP
Target sequence in this assay (Q50541 1-252): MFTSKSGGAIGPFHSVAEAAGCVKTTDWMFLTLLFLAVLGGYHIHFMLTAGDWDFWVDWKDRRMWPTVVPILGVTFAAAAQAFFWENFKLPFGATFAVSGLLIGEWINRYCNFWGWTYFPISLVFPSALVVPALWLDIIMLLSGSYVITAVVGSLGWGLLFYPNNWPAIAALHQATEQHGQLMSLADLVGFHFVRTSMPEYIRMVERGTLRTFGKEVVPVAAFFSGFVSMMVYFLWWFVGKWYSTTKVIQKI
Target sequence in this assay (Q9KX51 1-256): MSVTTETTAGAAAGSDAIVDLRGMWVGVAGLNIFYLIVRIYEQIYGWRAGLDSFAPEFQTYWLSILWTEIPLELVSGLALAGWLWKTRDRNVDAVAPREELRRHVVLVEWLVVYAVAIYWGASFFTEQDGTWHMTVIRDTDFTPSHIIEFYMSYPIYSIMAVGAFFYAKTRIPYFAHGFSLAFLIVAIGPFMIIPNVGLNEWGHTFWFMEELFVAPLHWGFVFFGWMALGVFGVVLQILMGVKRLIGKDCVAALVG

[4] = test system: Methylomonas methanica SI (NRRL B-11,199); experiment: n-alkanes to methyl ketones by resting cell suspensions (Table I); type: cell-based; conditions: cells grown on methane; 30° C.
Method: (§9) The pH of the nutrient medium was adjusted to 7.0 by the addition of acid or base and 50 ml. samples of the nutrient medium were charged into a plurality of 300 ml. shaker flasks. […] The isolates had been maintained on methanol (0.4% V/V) agar plates or on agar plates under an atmosphere of methane and air having a 1:1 V/V gas ratio which had been transferred every two weeks. For growth on methanol, the medium was supplemented with 0.4% methanol. For growth on methane, the gaseous phase of the inoculated flasks was replaced with a gas mixture comprised of methane and air having a ratio of 1:1 on a V/V basis. The inoculated flasks were sealed air-tight and were incubated on a rotary shaker of orbital radius 2.5 cm. at 250 rpm and at 30° C. for two days until turbidity in the medium had developed. The cells were harvested by centrifugation at 10,000×g. at 4° C. for 30 minutes. The cell pellet was washed twice with a 0.05 M phosphate buffer at a pH of 7.0 (containing 0.02 M MgCl2). The washed cells were then suspended in a 0.05 M phosphate buffer at pH 7.0.
(§10) A 0.5 ml. sample of each washed cell suspension (2 mg. cells) was put into 10 ml. vials at 4° C. which were sealed with a rubber cap. The gaseous phase of the vials was removed with vacuum and then was replaced with a gas mixture of the substrate reactant (i.e., alkane or secondary alcohol) and oxygen at a 1:1 V/V ratio. (In the case of a liquid substrate, i.e., secondary alcohol, 10 μl of the substrate was put in the 10 ml. vials). The vials were then incubated at 30° C. on a rotary shaker at 300 rpm. Samples of product (1-3 μl) were withdrawn periodically with a microsyringe and the products were analyzed by gas chromatography (ionization flame detector column).

[5] = test system: Methylomonas albus BG8 (NRRL B-11,200); experiment: as above; type: cell-based; conditions: cells grown on methane; 30° C.
Method: as §9, §10

[6] = test system: Methylococcus capsulatus Texas (ATCC 19069); experiment: as above; type: cell-based; conditions: cells grown on methane; 30° C.
Method: as §9, §10

[7] = test system: Methylosinus sporium 5 (NRRL B-11,197); experiment: as above; type: cell-based; conditions: cells grown on methane; 30° C.
Method: as §9, §10

[8] = test system: Methylobacter capsulatus Y (NRRL B-11,201); experiment: as above; type: cell-based; conditions: cells grown on methane; 30° C.
Method: as §9, §10

[9] = test system: Methylobacterium organophilum XX; experiment: as above; type: cell-based; conditions: cells grown on methane; 30° C.
Method: as §9, §10

[10] = test system: Methylocystis parvus OBBP (NRRL B-11,198); experiment: as above; type: cell-based; conditions: cells grown on methane; 30° C.
Method: as §9, §10

[11] = test system: Methylosinus trichosporium OB3b (NRRL B-11,196); experiment: as above; type: cell-based; conditions: cells grown on methane; 30° C.
Method: as §9, §10

[12] = test system: Methylosinus trichosporium OB3b NRRL B-11,196; experiment: conversion of n-alkanes to oxidation products by cell suspensions (Table XVIII); type: cell-based; conditions: methane-grown cell suspension; pH 7.0
Method: as §12, §13, §14

[13] = test system: particulate P(40) fraction; experiment: hydroxylation of n-alkanes to secondary alcohols by particulate P(40) fraction (Table XVII); type: biochemical, Methylobacterium sp. (CRL-26, NRRL-B-11,222)
Excerpt: as §1, §2, §3, §4, §5, §6, §7, §8

[14] = target: particulate P(40) fraction (Methylosinus trichosporium, UniProt Q50541+Q9KX50+Q9KX51); experiment: as above; type: biochemical, Methylosinus trichosporium (OB3b, NRRL-B-11,196)
Excerpt: as §1, §2, §3, §4, §5, §6, §7, §8
Target sequence in this assay (Q50541 1-252): as the sequence (Q50541 1-252) above
Target sequence in this assay (Q9KX50 40-431): as the sequence (Q9KX50 40-431) above
Target sequence in this assay (Q9KX51 1-256): as the sequence (Q9KX51 1-256) above

[15] = test system: Methylobacter capsulatus (Y, NRRL-B-11,201); experiment: n-alkanes to secondary alcohols by cell suspensions (Table XVI); type: cell-based; conditions: Growth Substrate Methane
Excerpt: as §1
(§11) ^(a) The product secondary alcohols were identified and estimated by […]

[16] = test system: Methylobacterium sp. (CRL-26, NRRL-B-11,208); experiment: as above; type: cell-based; conditions: Growth Substrate Methane
Excerpt: as §1, §11

[17] = test system: Methylomonas sp. (CRL-17, NRRL-B-11,209); experiment: as above; type: cell-based; conditions: Growth Substrate Methane
Excerpt: as §1, §11

[18] = test system: Methylococcus capsulatus (Texas, ATCC 19,069); experiment: as above; type: cell-based; conditions: Growth Substrate Methane
Excerpt: as §1, §11

[19] = test system: Methylosinus trichosporium (OB3b, NRRL-B-11,196); experiment: as above; type: cell-based; conditions: Growth Substrate Methane
Excerpt: as §1, §11

[20] = test system: Methylosinus sp. (CRL-15, NRRL-B-11,202); experiment: as above; type: cell-based; conditions: Growth Substrate Methane
Excerpt: as §1, §11

SMILES | Conversion Rate, n-alkane to corresponding secondary alcohol [2] | Conversion Rate, n-alkane to corresponding secondary alcohol [3] | Conversion Rates, n-alkane to corresponding methyl ketone [4] [μmoles/hr/mg protein] | Conversion Rates, n-alkane to corresponding methyl ketone [5] [μmoles/hr/mg protein] | Conversion Rates, n-alkane to corresponding methyl ketone [6] [μmoles/hr/mg protein] | Conversion Rates, n-alkane to corresponding methyl ketone [7] [μmoles/hr/mg protein] | Conversion Rates, n-alkane to corresponding methyl ketone [8] [μmoles/hr/mg protein] | Conversion Rates, n-alkane to corresponding methyl ketone [9] [μmoles/hr/mg protein] | Conversion Rates, n-alkane to corresponding methyl ketone [10] [μmoles/hr/mg protein] | Conversion Rates, n-alkane to corresponding methyl ketone [11] [μmoles/hr/mg protein] | Conversion Rate, n-alkane to corresponding secondary alcohol [13] | Conversion Rate, n-alkane to corresponding secondary alcohol [14] | Conversion Rate, n-alkane to corresponding secondary alcohol [15] [μmoles/hr/^5 mg. protein] | Conversion Rate, n-alkane to corresponding secondary alcohol [16] [μmoles/hr/^5 mg. protein] | Conversion Rate, n-alkane to corresponding secondary alcohol [17] [μmoles/hr/^5 mg. protein] | Conversion Rate, n-alkane to corresponding secondary alcohol [18] [μmoles/hr/^5 mg. protein] | Conversion Rate, n-alkane to corresponding secondary alcohol [19] [μmoles/hr/^5 mg. protein] | Conversion Rate, n-alkane to corresponding secondary alcohol [20] [μmoles/hr/^5 mg. protein] | also measured
CCCC [n-Butane, n-butane] | 0.92 μmoles/hr/2.0mg. of protein | 0.89 μmoles/hr/2.0mg. of protein | 0.30 | 0.60 | 0.52 | 0.58 | 1.1 | 2.0 | 1.0 | 1.2 | 0.61 μmoles/hr/2.0mg. of protein | 0.79 μmoles/hr/2.0mg. of protein | 0.09 | 0.80 | 1.2 | 1.0 | 1.5 | 1.2 | Conversion Rate, product 1-Butanol [1]: 0.4 μmoles/hr./mg./protein; Conversion Rate, product 2-Butanol [1]: 0.5 μmoles/hr./mg./protein; Conversion Rate, product 2-Butanone [1]: 0.2 μmoles/hr./mg./protein; Conversion Rate, product n-butanol [1]: 0.2 μmoles/hr./mg./protein; Conversion Rate, product 1-Butanol [12]: 0.3 μmoles/hr./mg./protein; Conversion Rate, product 2-Butanol [12]: 0.4 μmoles/hr./mg./protein; Conversion Rate, product 2-Butanone [12]: 0.1 μmoles/hr./mg./protein; Conversion Rate, product n-butanol [12]: 0.1 μmoles/hr./mg./protein
CCCCC [n-Pentane, n-pentane] |  |  | 0.28 |  | 0.42 |  | 0.63 | 0.58 | 0.51 | 0.72 |  |  |  | 0.01 |  | 0.032 | 0.06 |  | 
CCC [n-Propane, n-propane] | 1.2 μmoles/hr/2.0mg. of protein | 1.5 μmoles/hr/2.0mg. of protein | 2.5 | 2.7 | 1.2 | 2.1 | 1.6 | 2.8 | 1.8 | 1.5 | 1.0 μmoles/hr/2.0mg. of protein | 1.32 μmoles/hr/2.0mg. of protein | 0.20 | 1.4 | 1.6 | 1.1 | 2.5 | 2.1 | Conversion Rate, product 1-Propanol [1]: 0.5 μmoles/hr./mg./protein; Conversion Rate, product 2-Propanol [1]: 0.7 μmoles/hr./mg./protein; Conversion Rate, product Acetone [1]: 0.3 μmoles/hr./mg./protein; Conversion Rate, product Propanol [1]: 0.2 μmoles/hr./mg./protein; Conversion Rate, product 1-Propanol [12]: 0.4 μmoles/hr./mg./protein; Conversion Rate, product 2-Propanol [12]: 0.6 μmoles/hr./mg./protein; Conversion Rate, product Acetone [12]: 0.2 μmoles/hr./mg./protein; Conversion Rate, product Propanol [12]: 0.1 μmoles/hr./mg./protein
